Data reported in patent publication US9682083B2, “Pyrrolo[2,3-D]pyrimidine derivatives, process for their preparation and their use as kinase inhibitors” (NERVIANO MEDICAL SCIENCES S.R.L., priority 2013, dated 2017).

What was measured:
Assay type in all cases: cell-based
[1] = system: A2780 ovarian carcinoma; test: In vitro cell proliferation assay (CellTiterGlo), A2780 control line; details: Homo sapiens, antiproliferative activity, 72 hours exposure, non RET-dependent control cell line
Protocol: (§1) In Vitro Cell Proliferation Assay
(§2) To evaluate the antiproliferative activity of a compound of formula (I) the following human cell lines were used: A2780 ovarian carcinoma; TT and MZ-CRC-1 medullary thyroid carcinoma, harboring a mutated RET-C634W and RET-M918T receptor respectively; LC-2/ad human lung adenocarcinoma, harboring the CCDC6-RET fusion protein. Exponentially growing cells were seeded and incubated at 37° C. in a humidified 5% CO2 atmosphere using appropriate medium supplemented with 10% Fetal Bovine Serum. 24 hours following cell plating, scalar doses of the compounds dissolved in 0.1% DMSO were added to the medium and cells were exposed to drugs for either 72 hours (A2780) or 144 hours (TT, MZ-CRC-1 and LC-2/ad), according to their different proliferation rate. At the end of treatment, cell proliferation was determined by an intracellular ATP monitoring system (CellTiterGlo—Promega), following manufacturer's instructions, and using an Envision instrument (PerkinElmer) as reader. Data obtained from compound versus vehicle treated cells were compared using Assay Explorer (Symyx Technologies Inc) software. IC50 values were calculated using sigmoidal interpolation curve fitting.
(§3) In the following Table A the antiproliferative activity of representative compounds of formula (I) on two medullary thyroid carcinoma cell lines expressing the aforementioned mutated forms of RET (TT and MZ-CRC-1) and on one lung adenocarcinoma cell line harboring the aforementioned fusion form of RET (LC-2/ad) is reported. As control, the antiproliferative activity of the same compounds on an unrelated non RET-dependent cell line (A2780) is reported. All these compounds show remarkable activity on RET-driven cellular models with respect to the unrelated ones.

[2] = system: TT medullary thyroid carcinoma, harboring a mutated RET-C634W receptor; test: In vitro cell proliferation assay (CellTiterGlo), TT; details: Homo sapiens, antiproliferative activity, 144 h exposure
Protocol: as §1, §2, §3

[3] = system: LC-2/ad human lung adenocarcinoma, harboring the CCDC6-RET fusion protein; test: In vitro cell proliferation assay (CellTiterGlo), LC-2/ad; details: antiproliferative activity, 144 h exposure
Protocol: as §1, §2, §3

[4] = system: MZ-CRC-1 medullary thyroid carcinoma, harboring a mutated RET-M918T receptor; test: In vitro cell proliferation assay (CellTiterGlo), MZ-CRC-1; details: Homo sapiens, antiproliferative activity, 144 h exposure
Protocol: as §1, §2, §3

SMILES | IC50 [1] [nM] | IC50 [2] [µM] | IC50 [3] [µM] | IC50 [4] [µM]
Nc1ncnc2[nH]cc(C#Cc3cccc(NC(=O)c4ccccc4)c3)c12 [cmpd 9, N-{3-[(4-amino-7H-pyrrolo[2,3-d]pyrimidin-5-yl)ethynyl]phenyl}benzamide] | 6900 | 0.865 | – | –
Nc1ncnc2[nH]cc(C#Cc3cccc(NC(=O)Cc4cccc(C(F)(F)F)c4)c3)c12 [cmpd 11, N-[3-(4-Amino-7H-pyrrolo[2,3-d]pyrimidin-5-ylethynyl)-phenyl]-2-(3-trifluoromethyl-phenyl)-acetamide] | 601 | 0.249 | – | –
CCN1CCN(Cc2ccc(NC(=O)Cc3cccc(C#Cc4c[nH]c5ncnc(N)c45)c3)cc2C(F)(F)F)CC1 [cmpd 12, 2-[3-(4-Amino-7H-pyrrolo[2,3-d]pyrimidin-5-ylethynyl)-phenyl]-N-[4-(4-ethyl-piperazin-1-ylmethyl)-3-trifluoromethyl-phenyl]-acetamide] | 695 | 0.012 | 0.111 | 0.222
Nc1ncnc2[nH]cc(C#Cc3cccc(C(=O)NC4CC4)c3)c12 [cmpd 15, 3-[(4-amino-7H-pyrrolo[2,3-d]pyrimidin-5-yl)ethynyl]-N-cyclopropylbenzamide] | 4360 | 0.192 | – | –
Nc1ncnc2[nH]cc(C#Cc3cccc(NC(=O)c4cccc(C(F)(F)F)c4)c3)c12 [cmpd 24, N-{3-[(4-amino-7H-pyrrolo[2,3-d]pyrimidin-5-yl)ethynyl]phenyl}-3-(trifluoromethyl)benzamide] | 137 | 0.003 | 0.066 | 0.024
Nc1ncnc2[nH]cc(C#Cc3cccc(NC(=O)c4cccc(F)c4)c3)c12 [cmpd 26, N-{3-[(4-amino-7H-pyrrolo[2,3-d]pyrimidin-5-yl)ethynyl]phenyl}-3-fluorobenzamide] | 3670 | 0.14 | 0.49 | –
Cc1ccc(C(=O)Nc2cccc(C#Cc3c[nH]c4ncnc(N)c34)c2)cc1 [cmpd 31, N-{3-[(4-amino-7H-pyrrolo[2,3-d]pyrimidin-5-yl)ethynyl]phenyl}-4-methylbenzamide] | 4450 | 0.111 | – | –
Nc1ncnc2c1c(C#Cc1cccc(C(=O)NC3CC3)c1)cn2CC(F)(F)F [cmpd 36, 3-{[4-amino-7-(2,2,2-trifluoroethyl)-7H-pyrrolo[2,3-d]pyrimidin-5-yl]ethynyl}-N-cyclopropylbenzamide] | 1730 | 0.053 | 0.058 | 0.166
Nc1ncnc2c1c(C#Cc1cccc(C(=O)NC3CC3)c1)cn2CCO [cmpd 37, 3-{[4-amino-7-(2-hydroxyethyl)-7H-pyrrolo[2,3-d]pyrimidin-5-yl]ethynyl}-N-cyclopropylbenzamide] | 6790 | 0.109 | 0.115 | 0.271
CC(C)n1cc(C#Cc2cccc(C(=O)NC3CC3)c2)c2c(N)ncnc21 [cmpd 40, 3-{[4-amino-7-(propan-2-yl)-7H-pyrrolo[2,3-d]pyrimidin-5-yl]ethynyl}-N-cyclopropylbenzamide] | 1930 | 0.022 | 0.033 | 0.049
CN1CCC(n2cc(C#Cc3cccc(C(=O)NC4CC4)c3)c3c(N)ncnc32)CC1 [cmpd 46, 3-{[4-amino-7-(1-methylpiperidin-4-yl)-7H-pyrrolo[2,3-d]pyrimidin-5-yl]ethynyl}-N-cyclopropylbenzamide] | 4320 | 0.023 | 0.02 | –
Cc1ccc(C(=O)NC2CC2)cc1C#Cc1cn(C(C)C)c2ncnc(N)c12 [cmpd 51, 3-{[4-amino-7-(propan-2-yl)-7H-pyrrolo[2,3-d]pyrimidin-5-yl]ethynyl}-N-cyclopropyl-4-methylbenzamide] | 1590 | 0.016 | 0.019 | –
Cc1ccc(C(=O)NC2CC2)cc1C#Cc1cn(CC(F)(F)F)c2ncnc(N)c12 [cmpd 52, 3-{[4-amino-7-(2,2,2-trifluoroethyl)-7H-pyrrolo[2,3-d]pyrimidin-5-yl]ethynyl}-N-cyclopropyl-4-methylbenzamide] | 3910 | 0.1 | 0.107 | 0.201
CC(C)n1cc(C#Cc2cc(C(=O)NC3CC3)ccc2F)c2c(N)ncnc21 [cmpd 53, 3-{[4-amino-7-(propan-2-yl)-7H-pyrrolo[2,3-d]pyrimidin-5-yl]ethynyl}-N-cyclopropyl-4-fluorobenzamide] | 837 | 0.01 | 0.009 | –
Nc1ncnc2c1c(C#Cc1cc(C(=O)NC3CC3)ccc1F)cn2CC(F)(F)F [cmpd 54, 3-{[4-amino-7-(2,2,2-trifluoroethyl)-7H-pyrrolo[2,3-d]pyrimidin-5-yl]ethynyl}-N-cyclopropyl-4-fluorobenzamide] | 3290 | 0.02 | 0.053 | 0.068
CC(C)n1cc(C#Cc2cc(F)cc(C(=O)NC3CC3)c2)c2c(N)ncnc21 [cmpd 58, 3-{[4-amino-7-(propan-2-yl)-7H-pyrrolo[2,3-d]pyrimidin-5-yl]ethynyl}-N-cyclopropyl-5-fluorobenzamide] | 539 | 0.004 | 0.004 | –
Nc1ncnc2c1c(C#Cc1cccc(C(=O)NC3CC3)c1)cn2-c1cccnc1 [cmpd 68, 3-{[4-amino-7-(pyridin-3-yl)-7H-pyrrolo[2,3-d]pyrimidin-5-yl]ethynyl}-N-cyclopropylbenzamide] | 7180 | 0.043 | 0.021 | –
COc1cccc(-n2cc(C#Cc3cccc(C(=O)NC4CC4)c3)c3c(N)ncnc32)c1 [cmpd 70, 3-{[4-amino-7-(3-methoxyphenyl)-7H-pyrrolo[2,3-d]pyrimidin-5-yl]ethynyl}-N-cyclopropylbenzamide] | > 10000 | 0.213 | 0.213 | –
CCN1CCN(Cc2ccc(NC(=O)c3cccc(C#Cc4cn(C(C)C)c5ncnc(N)c45)c3)cc2C(F)(F)F)CC1 [cmpd 82, 3-{[4-amino-7-(propan-2-yl)-7H-pyrrolo[2,3-d]pyrimidin-5-yl]ethynyl}-N-{4-[(4-ethylpiperazin-1-yl)methyl]-3-(trifluoromethyl)phenyl}benzamide] | 46 | 0.001 | 0.004 | –
CCC(C)n1cc(C#Cc2cccc(C(=O)NC3CC3)c2)c2c(N)ncnc21 (stereo not drawn) [cmpd 85, 3-{[4-amino-7-(butan-2-yl)-7H-pyrrolo[2,3-d]pyrimidin-5-yl]ethynyl}-N-cyclopropylbenzamide] | 1600 | 0.03 | 0.024 | –
Nc1ncnc2c1c(C#Cc1cccc(C(=O)NC3CC3)c1)cn2CCF [cmpd 86, 3-{[4-amino-7-(2-fluoroethyl)-7H-pyrrolo[2,3-d]pyrimidin-5-yl]ethynyl}-N-cyclopropylbenzamide] | 1910 | 0.025 | 0.018 | –
CCn1c(C)c(C#Cc2cccc(C(=O)NC3CC3)c2)c2c(N)ncnc21 [cmpd 87, 3-[(4-amino-7-ethyl-6-methyl-7H-pyrrolo[2,3-d]pyrimidin-5-yl)ethynyl]-N-cyclopropylbenzamide] | 1520 | 0.019 | 0.012 | –
CC1(Cn2cc(C#Cc3cccc(C(=O)NC4CC4)c3)c3c(N)ncnc32)COC1 [cmpd 88, 3-({4-amino-7-[(3-methyloxetan-3-yl)methyl]-7H-pyrrolo[2,3-d]pyrimidin-5-yl}ethynyl)-N-cyclopropylbenzamide] | 1520 | 0.052 | 0.048 | –
CN1CCC(n2cc(C#Cc3cccc(C(=O)NC4CC4)c3)c3c(N)ncnc32)C1 (stereo not drawn) [cmpd 89, 3-{[4-amino-7-(1-methylpyrrolidin-3-yl)-7H-pyrrolo[2,3-d]pyrimidin-5-yl]ethynyl}-N-cyclopropylbenzamide] | 6690 | 0.136 | 0.127 | –
Nc1ncnc2c1c(C#Cc1cccc(C(=O)NC3CC3)c1)cn2CC1CCC1 [cmpd 95, 3-{[4-amino-7-(cyclobutylmethyl)-7H-pyrrolo[2,3-d]pyrimidin-5-yl]ethynyl}-N-cyclopropylbenzamide] | 2450 | 0.06 | 0.032 | –
Nc1ncnc2c1c(C#Cc1cccc(C(=O)NC3CC3)c1)cn2CC1CC1 [cmpd 99, 3-{[4-amino-7-(cyclopropylmethyl)-7H-pyrrolo[2,3-d]pyrimidin-5-yl]ethynyl}-N-cyclopropylbenzamide] | 1800 | 0.017 | 0.019 | –
CC(C)n1cc(C#Cc2cc(C(=O)NC3CC3)ccc2C#N)c2c(N)ncnc21 [cmpd 108, 3-{[4-amino-7-(propan-2-yl)-7H-pyrrolo[2,3-d]pyrimidin-5-yl]ethynyl}-4-cyano-N-cyclopropylbenzamide] | 6110 | 0.023 | 0.045 | –
CC(C)n1cc(C#Cc2cccc(C(N)=O)c2)c2c(N)ncnc21 [cmpd 110, 3-{[4-amino-7-(propan-2-yl)-7H-pyrrolo[2,3-d]pyrimidin-5-yl]ethynyl}benzamide] | 5880 | 0.227 | 0.279 | –
